ChEMBL document CHEMBL5465560, “Selectivity Literature for EUbOPEN Chemogenomic Library” (2024)

Legend:
[1] = biological target: T1, 5-hydroxytryptamine receptor 3A (Homo sapiens) (UniProt P46098); assay: Selectivity interaction (GPCR panel (PDSP screen)) EUB0001079a HTR3A; settings: at 10 µM
T1 sequence (whole entry): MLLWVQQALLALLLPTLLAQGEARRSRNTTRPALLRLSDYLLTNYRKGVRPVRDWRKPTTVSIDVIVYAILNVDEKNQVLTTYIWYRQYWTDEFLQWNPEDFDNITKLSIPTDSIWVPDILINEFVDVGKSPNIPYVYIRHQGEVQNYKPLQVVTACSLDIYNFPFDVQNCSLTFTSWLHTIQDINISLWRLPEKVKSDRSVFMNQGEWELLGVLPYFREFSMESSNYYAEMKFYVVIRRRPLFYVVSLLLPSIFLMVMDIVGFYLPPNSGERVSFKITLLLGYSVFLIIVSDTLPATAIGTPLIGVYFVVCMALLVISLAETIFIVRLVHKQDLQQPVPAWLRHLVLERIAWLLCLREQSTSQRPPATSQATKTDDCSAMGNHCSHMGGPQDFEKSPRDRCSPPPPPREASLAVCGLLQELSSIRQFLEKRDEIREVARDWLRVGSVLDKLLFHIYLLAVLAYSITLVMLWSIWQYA

[2] = biological target: Microtubule-associated serine/threonine-protein kinase 1 (Homo sapiens) (UniProt Q9Y2H9); assay: Selectivity interaction (KinomeScan (DiscoverX)) EUB0000595a MAST1; settings: at 10 µM
Sequence of Microtubule-associated serine/threonine-protein kinase 1 (Homo sapiens) (Q9Y2H9 whole entry, looked up): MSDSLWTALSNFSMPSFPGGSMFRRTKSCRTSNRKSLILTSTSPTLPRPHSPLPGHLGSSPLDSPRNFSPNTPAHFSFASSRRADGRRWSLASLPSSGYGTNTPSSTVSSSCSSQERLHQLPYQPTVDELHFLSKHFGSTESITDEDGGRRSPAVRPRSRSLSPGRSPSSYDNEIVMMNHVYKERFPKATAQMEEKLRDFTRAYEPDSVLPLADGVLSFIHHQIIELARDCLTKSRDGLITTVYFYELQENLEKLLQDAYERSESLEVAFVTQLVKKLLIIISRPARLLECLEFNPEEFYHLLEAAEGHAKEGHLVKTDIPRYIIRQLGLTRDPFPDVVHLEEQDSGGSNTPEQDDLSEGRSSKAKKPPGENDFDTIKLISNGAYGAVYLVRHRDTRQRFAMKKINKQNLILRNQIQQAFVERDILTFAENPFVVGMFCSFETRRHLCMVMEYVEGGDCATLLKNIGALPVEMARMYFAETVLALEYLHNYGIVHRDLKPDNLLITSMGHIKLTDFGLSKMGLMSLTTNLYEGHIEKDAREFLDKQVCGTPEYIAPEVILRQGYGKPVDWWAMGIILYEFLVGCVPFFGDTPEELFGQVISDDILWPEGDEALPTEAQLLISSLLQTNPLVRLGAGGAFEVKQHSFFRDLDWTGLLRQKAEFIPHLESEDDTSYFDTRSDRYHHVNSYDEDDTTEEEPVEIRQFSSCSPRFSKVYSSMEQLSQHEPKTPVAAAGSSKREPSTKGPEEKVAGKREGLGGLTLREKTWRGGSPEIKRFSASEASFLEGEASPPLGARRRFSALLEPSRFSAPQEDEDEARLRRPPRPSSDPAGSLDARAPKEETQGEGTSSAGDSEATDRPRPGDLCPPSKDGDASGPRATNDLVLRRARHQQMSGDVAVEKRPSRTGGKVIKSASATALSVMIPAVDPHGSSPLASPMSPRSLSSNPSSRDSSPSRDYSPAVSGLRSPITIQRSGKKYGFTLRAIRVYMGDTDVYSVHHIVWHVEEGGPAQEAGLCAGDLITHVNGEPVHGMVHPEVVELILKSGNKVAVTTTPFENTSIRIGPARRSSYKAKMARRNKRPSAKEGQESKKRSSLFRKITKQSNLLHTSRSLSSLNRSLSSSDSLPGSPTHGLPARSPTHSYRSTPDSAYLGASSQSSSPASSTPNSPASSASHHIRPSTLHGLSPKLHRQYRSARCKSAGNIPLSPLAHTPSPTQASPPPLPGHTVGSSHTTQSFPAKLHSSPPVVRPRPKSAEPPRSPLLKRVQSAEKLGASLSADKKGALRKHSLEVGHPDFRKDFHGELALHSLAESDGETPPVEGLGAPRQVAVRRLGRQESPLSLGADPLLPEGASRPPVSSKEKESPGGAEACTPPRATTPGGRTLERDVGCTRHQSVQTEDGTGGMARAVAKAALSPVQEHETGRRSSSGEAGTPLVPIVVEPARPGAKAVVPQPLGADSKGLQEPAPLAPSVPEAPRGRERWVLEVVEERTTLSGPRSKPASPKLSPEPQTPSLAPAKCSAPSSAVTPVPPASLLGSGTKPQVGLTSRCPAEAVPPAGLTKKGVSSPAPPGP

[3] = biological target: T2, Dual specificity mitogen-activated protein kinase kinase 7 (Homo sapiens) (UniProt O14733); assay: Selectivity interaction (KinomeScan (DiscoverX)) EUB0000045b MAP2K7
T2 sequence (whole entry): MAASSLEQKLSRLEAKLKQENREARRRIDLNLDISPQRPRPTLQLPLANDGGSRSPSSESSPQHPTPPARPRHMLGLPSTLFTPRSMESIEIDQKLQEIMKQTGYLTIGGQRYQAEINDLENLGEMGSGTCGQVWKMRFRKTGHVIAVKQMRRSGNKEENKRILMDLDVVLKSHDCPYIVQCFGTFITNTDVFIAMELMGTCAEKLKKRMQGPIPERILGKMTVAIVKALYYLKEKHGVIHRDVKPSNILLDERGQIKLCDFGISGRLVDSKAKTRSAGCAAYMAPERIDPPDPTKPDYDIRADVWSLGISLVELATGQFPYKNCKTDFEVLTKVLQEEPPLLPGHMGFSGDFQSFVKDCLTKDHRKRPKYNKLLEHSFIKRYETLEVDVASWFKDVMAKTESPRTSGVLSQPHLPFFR

[4] = biological target: T3, Atypical kinase COQ8B, mitochondrial (Homo sapiens) (UniProt Q96D53); assay: Selectivity interaction (KinomeScan (DiscoverX)) EUB0000618a ADCK4; settings: at 10 µM
T3 sequence (whole entry): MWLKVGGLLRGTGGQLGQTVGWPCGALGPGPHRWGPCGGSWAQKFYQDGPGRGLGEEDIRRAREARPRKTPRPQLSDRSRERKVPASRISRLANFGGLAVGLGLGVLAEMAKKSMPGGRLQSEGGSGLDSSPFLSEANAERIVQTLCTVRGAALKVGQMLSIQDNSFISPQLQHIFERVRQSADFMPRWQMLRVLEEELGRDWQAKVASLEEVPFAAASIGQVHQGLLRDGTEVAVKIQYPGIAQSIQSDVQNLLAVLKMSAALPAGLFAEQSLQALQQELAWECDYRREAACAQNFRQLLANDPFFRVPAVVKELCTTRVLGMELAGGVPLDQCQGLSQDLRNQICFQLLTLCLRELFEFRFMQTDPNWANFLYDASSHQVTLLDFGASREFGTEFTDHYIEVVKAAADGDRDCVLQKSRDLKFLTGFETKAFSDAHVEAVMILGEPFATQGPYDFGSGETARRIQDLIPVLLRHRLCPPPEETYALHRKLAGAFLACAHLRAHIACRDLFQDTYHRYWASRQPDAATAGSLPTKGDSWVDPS

[5] = biological target: T4, Phosphatidylinositol 4,5-bisphosphate 3-kinase catalytic subunit delta isoform (Homo sapiens) (UniProt O00329); assay: Selectivity interaction (KinomeScan (DiscoverX)) EUB0000607a PIK3CD; settings: at 10 µM
T4 sequence (whole entry): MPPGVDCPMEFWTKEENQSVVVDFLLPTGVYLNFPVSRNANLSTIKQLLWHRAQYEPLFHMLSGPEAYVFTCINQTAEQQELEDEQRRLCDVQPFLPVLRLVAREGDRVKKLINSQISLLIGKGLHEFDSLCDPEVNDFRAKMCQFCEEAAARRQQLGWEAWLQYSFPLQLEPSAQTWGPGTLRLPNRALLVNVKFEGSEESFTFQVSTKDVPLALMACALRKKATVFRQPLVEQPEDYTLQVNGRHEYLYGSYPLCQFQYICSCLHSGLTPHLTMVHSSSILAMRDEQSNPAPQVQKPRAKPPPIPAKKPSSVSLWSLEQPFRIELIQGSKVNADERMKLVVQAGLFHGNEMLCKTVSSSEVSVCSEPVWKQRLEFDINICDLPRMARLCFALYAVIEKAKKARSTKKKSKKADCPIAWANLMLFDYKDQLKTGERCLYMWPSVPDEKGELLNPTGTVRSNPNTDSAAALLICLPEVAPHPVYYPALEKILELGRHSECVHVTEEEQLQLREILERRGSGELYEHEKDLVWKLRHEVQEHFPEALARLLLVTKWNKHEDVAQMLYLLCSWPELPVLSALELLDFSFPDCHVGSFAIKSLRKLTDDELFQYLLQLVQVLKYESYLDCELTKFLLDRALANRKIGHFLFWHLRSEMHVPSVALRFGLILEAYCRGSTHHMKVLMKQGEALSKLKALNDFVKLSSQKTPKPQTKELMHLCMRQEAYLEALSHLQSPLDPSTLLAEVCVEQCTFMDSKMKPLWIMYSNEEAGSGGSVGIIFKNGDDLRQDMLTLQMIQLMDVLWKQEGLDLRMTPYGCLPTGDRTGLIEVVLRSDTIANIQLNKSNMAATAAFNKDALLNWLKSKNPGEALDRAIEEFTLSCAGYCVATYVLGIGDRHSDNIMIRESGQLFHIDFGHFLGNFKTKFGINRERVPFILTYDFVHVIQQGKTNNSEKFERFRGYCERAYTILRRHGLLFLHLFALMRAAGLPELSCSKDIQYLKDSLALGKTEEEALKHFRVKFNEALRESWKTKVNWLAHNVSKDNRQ

[6] = biological target: Beta-1 adrenergic receptor (Homo sapiens, UniProt P08588); assay: Selectivity interaction (Panel of non-epigenetic targets (kinases, GPCRs, ion channels, and transporters, Eurofins) ) EUB0000271b ADRB1; settings: at 1 µM
Sequence of Beta-1 adrenergic receptor (P08588 whole entry, looked up): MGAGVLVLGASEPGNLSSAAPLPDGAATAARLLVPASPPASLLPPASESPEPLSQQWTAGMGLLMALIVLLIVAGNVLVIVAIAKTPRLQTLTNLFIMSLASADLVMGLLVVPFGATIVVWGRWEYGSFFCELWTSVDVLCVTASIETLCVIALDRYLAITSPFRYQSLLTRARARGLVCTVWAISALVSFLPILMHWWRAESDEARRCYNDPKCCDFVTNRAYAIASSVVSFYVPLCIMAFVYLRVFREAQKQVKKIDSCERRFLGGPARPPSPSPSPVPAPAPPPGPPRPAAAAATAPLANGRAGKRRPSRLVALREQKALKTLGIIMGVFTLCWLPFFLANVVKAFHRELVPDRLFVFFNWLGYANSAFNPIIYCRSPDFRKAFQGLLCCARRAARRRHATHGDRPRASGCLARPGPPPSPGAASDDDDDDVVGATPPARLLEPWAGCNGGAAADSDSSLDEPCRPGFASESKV

Molecule `Nc1cnc(N2CCc3cc(S(=O)(=O)Nc4c(F)cc(Cl)cc4F)cc(N4CCCC4=O)c32)nc1` [TP-020n] has a % of inhibition [1] of 0.32%.
For `COCC(=O)NC/C=C/c1ccc2ncnc(Nc3ccc(Oc4ccc(C)nc4)c(C)c3)c2c1` [CP-724714], the % of control [2] was 100%.
In the case of `C=CC(=O)Nc1cc(-n2c(=O)ccc3cnc4ccc(-c5ccc(NS(C)(=O)=O)cc5)cc4c32)ccc1C`, the % of control ([3]; at 1 µM) is reported as 49% and the % of control ([3]; at 10 µM) is reported as 6.1%.
In the case of `O[C@H]1CC[C@H](Nc2ncc3nc(Nc4c(F)cc(F)cc4F)n([C@H]4CCOC4)c3n2)CC1`, the % of control [4] is reported as 87%.
In the case of `CNC(=O)Nc1ccc(-c2nc(N3CC4CCC(C3)O4)c3cnn(C4CCC5(CC4)OCCO5)c3n2)cc1`, the % of control [5] is reported as 5.7%.
`Cc1cc(C)cc([C@@H]2c3cc(C)ccc3NC(=O)CN2C(=O)c2ccc(Br)s2)c1` gave a % of inhibition [6] of -13%.
